Structures can show the parent of a compound that is named as a salt. Where two headings read alike, the source gives them in different places.
Key:
[1] = biological target: T1, α1C Human Adrenergic Receptor (Homo sapiens, UniProt P35348); assay: Radioligand binding, [3H]prazosin, cloned human α1C adrenergic receptor
T1 construct: The entire coding region of α1C (1401 bp); expressed in transfected cells
T1 sequence (P35348 1-466): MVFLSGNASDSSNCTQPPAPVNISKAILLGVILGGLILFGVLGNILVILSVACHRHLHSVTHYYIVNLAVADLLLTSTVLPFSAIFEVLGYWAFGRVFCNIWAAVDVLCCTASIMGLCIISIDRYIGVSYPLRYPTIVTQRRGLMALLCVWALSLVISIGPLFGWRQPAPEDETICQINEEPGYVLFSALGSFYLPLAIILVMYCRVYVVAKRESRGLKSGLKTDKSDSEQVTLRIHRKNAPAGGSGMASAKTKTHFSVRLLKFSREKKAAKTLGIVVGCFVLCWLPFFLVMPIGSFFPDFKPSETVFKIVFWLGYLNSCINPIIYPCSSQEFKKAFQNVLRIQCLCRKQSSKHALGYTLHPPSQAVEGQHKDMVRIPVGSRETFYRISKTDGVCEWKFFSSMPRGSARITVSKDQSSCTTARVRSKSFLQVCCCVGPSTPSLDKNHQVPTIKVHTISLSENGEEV
Outline: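 Membranes from LM(tk−) cells stably expressing the cloned human α1C receptor were incubated with 0.5 nM [3H]prazosin at 37° C. for 20 min in 50 mM Tris-HCl, 1 mM MgCl2, 0.1% ascorbic acid, pH 7.5. Nonspecific binding was defined with 10 μM phentolamine, and bound ligand was separated by GF/B filtration.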

α2A receptor = biological target: T2, α2A receptor (Homo sapiens, UniProt P08913); assay: Competition binding, [3H]rauwolscine, human α2A receptor
T2 construct: host or cells: LM(tk-) cells, line L-α2A
T2 sequence (P08913 1-465): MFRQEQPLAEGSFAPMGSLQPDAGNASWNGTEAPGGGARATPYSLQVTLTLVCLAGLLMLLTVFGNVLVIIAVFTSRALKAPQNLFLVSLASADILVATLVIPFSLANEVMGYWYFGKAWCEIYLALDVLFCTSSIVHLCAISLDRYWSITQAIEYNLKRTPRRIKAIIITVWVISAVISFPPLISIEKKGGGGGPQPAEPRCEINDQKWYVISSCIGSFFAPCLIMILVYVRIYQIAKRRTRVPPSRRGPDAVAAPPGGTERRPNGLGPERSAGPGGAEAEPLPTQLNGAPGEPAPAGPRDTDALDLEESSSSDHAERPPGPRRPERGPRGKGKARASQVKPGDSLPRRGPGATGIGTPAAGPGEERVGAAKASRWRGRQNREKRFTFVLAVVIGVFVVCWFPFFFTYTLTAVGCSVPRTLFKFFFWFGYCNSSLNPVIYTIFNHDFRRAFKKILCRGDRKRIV
Outline: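 Equilibrium displacement of [3H]rauwolscine (0.5 nM) measured on membranes from stably transfected LM(tk−) lines, one per α2 subtype, in glycylglycine buffer at pH 7.6. Nonspecific binding set by 10 μM phentolamine; separation by filtration.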

[2] = biological target: T3, α1B Human Adrenergic Receptor (Homo sapiens, UniProt P35368); assay: Radioligand binding, [3H]prazosin, cloned human α1B adrenergic receptor
T3 construct: The entire coding region of α1B (1563 bp); expressed in transfected cells
T3 sequence (P35368 1-520): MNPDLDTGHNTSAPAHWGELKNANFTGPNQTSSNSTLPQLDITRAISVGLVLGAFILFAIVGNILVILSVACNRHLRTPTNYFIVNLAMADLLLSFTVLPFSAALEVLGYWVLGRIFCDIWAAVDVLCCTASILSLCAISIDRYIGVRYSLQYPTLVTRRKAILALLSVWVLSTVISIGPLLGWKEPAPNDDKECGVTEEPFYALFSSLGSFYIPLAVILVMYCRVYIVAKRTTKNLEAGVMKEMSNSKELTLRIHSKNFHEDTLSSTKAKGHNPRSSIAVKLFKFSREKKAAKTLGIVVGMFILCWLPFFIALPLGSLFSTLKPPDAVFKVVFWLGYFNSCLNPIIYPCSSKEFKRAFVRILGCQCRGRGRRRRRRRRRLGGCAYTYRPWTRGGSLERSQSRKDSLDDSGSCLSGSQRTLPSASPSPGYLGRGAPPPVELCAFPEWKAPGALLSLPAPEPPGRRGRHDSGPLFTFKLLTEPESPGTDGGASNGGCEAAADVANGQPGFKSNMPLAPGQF
Outline: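 [3H]prazosin (0.5 nM) binding was run for 20 min at 37° C in pH 7.5 Tris/MgCl2/ascorbate buffer on membranes of LM(tk−) cells stably expressing the cloned receptor. Filtration through GF/B ended the reaction; 10 μM phentolamine gave nonspecific binding.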

[3] = cloned human receptor in LM(tk-) cell membranes, SEM and n in lines below, read-out: pKi alpha-1 1c (converted)
[4] = cloned human receptor in LM(tk-) cell membranes, SEM and n in lines below, read-out: pKi alpha-1 1b (converted)
[5] = pKi alpha-1 1c, cloned human α1C receptor, LM(tk−) cell membranes
[6] = [3H]rauwolscine, human α2A receptor, LM(tk−) cells, read-out: pKi alpha-2 2a (converted)
[7] = pKi alpha-1 1b, cloned human α1B receptor, LM(tk−) cell membranes
[8] = [3H]rauwolscine, LM(tk-) cell line L-α2A, SEM and n in lines below, read-out: pKi alpha-2 2a (converted)
[9] = pKi alpha-1 1b, cloned human receptor in LM(tk-) cell membranes, SEM and n in lines below
[10] = pKi alpha-1 1c, cloned human receptor in LM(tk-) cell membranes, SEM and n in lines below

`COC(=O)C1=C(C)NC(C)=C(C(=O)NCCCN2CCC(c3ccccc3)(c3ccccc3)CC2)C1c1ccc(OC)c(OC)c1` (stereo not drawn) [Example 26] was tested, and the Ki [1, 3] was 7.08 nM, the Ki (α2A receptor) was 2140 nM and the Ki [2, 4] was 437 nM.
`COC(=O)C1=C(C)NC(C)=C(C(=O)NCCCN2CCC(c3ccccc3)(c3ccccc3)CC2)C1c1ccc(OC)cc1` (stereo not drawn) [Example 21, 1,4-Dihydro-3-methoxycarbonyl-4-(4-Methoxyphenyl)-2,6-dimethyl-5-(N-(3-(4,4-diphenylpiperidin-1-yl)propyl)carboxamido)pyridine] showed a Ki [1, 3] of 7.08 nM, a Ki (α2A receptor) of 2090 nM and a Ki [2, 4] of 204 nM.
In the case of `COC(=O)C1=C(C)NC(C)=C(C(=O)N(C)CCCN2CCC(c3ccccc3)(c3ccccc3)CC2)C1c1ccc([N+](=O)[O-])cc1` (stereo not drawn) [Example 46, hydrochloride hemihydrate], the Ki [1, 3] is reported as 20.4 nM, the Ki (α2A receptor) is reported as 676 nM and the Ki [2, 4] is reported as 240 nM.
Work on `COC(=O)C1=C(C)NC(C)=C(C(=O)NCCCN2CCC(c3ccccc3)(c3ccccc3)CC2)C1c1ccc(-c2ccccc2)cc1` (stereo not drawn) [Example 7] yielded a Ki [1, 3] of 617 nM, a Ki (α2A receptor) of 3800 nM and a Ki [2, 4] of 288 nM.
With `CCC1=C(C(N)=O)C(c2ccc([N+](=O)[O-])cc2)C(C(=O)NCCCN2CCC(C#N)(c3ccccc3)CC2)=C(CC)N1` (racemic) [(±)-102, 5-Carboxamido-3-{N-[(4-cyano-4-phenylpiperidin-1-ly)propyl]carboxamido-2,6-diethyl-1,4-dihydro-4-(4-nitrophenyl)pyridine hydrochloride hydrate] the Ki [1, 5] was 3.8 nM, the Ki (α2A receptor; [6]) was 2880 nM and the Ki [2, 7] was 1620 nM.
With `COC(=O)C1=C(C)NC(C)=C(C(=O)NCCCN2CCC(c3ccccc3)(c3ccccc3)CC2)C1c1ccc2c(c1)OCO2` (stereo not drawn) [Example 11, 1,4-Dihydro-3-methoxycarbonyl-2,6-dimethyl-4-(3,4-methylenedioxyphenyl)-5-(N-(3-(4,4-diphenylpiperidin-1-yl)propyl)carboxamido)pyridine] the Ki [1, 3] was 1.12 nM, the Ki (α2A receptor) was 1120 nM and the Ki [2, 4] was 229 nM.
`COC(=O)C1=C(C)NC(C)=C(C(=O)NCCCN2CCC(c3ccccc3)(c3ccccc3)CC2)C1c1ccc([N+](=O)[O-])c(OC)c1` (stereo not drawn) [Example 29, 1,4-Dihydro-3-methoxycarbonyl-4-(3-methoxy-4-nitrophenyl)-2,6-dimethyl-5-(N-(3-(4,4-diphenylpiperidin-1-yl)propyl)carboxamido)pyridine] gave a Ki [1, 3] of 1.48 nM, a Ki (α2A receptor; [8]) of 692 nM and a Ki [2, 9] of 141 nM.
With `CC1=C(C(N)=O)C(c2ccc([N+](=O)[O-])cc2)C(C(=O)NCCN2CCC(c3ccccc3)(c3ccccc3)CC2)=C(C)N1` (stereo not drawn) [Example 54, 5-Carboxamide-1,4-dihydro-2,6-dimethyl-4-(4-nitrophenyl)-3-{N-[2-(4,4-diphenylpiperidin-1-yl)ethyl]}carboxamidopyridine hydrochloride hydrate] the Ki [1, 10] was 12.3 nM, the Ki (α2A receptor; [8]) was 468 nM and the Ki [2, 9] was 174 nM.
With `CCC1=C(C(=O)NC)C(c2ccc([N+](=O)[O-])cc2)C(C(=O)NCCCN2CCC(c3ccccc3)(c3ccccc3)CC2)=C(CC)N1` (stereo not drawn) [Example 128, 2,6-Diethyl-1,4-dihydro-5-(N-methyl)carboxamido-4-(4-nitrophenyl)-3-{N-[3-(4,4-diphenylpiperidin-1-yl)propyl]}carboxamidopyridine] the Ki [1, 5] was 3.39 nM, the Ki (α2A receptor; [6]) was 457 nM and the Ki [2, 7] was 1050 nM.
Work on `CCC1=C(C(N)=O)C(c2ccc(S(C)(=O)=O)cc2)C(C(=O)NCCCN2CCC(c3ccccc3)(c3ccccc3)CC2)=C(CC)N1` (stereo not drawn) [Example 116, 5-Carboxamido-2,6-diethyl-1,4-dihydro-4-(4-methanesulfonylphenyl)-3-(N-(3-(4,4-diphenylpiperidin-1-yl)propyl)carboxamido)-pyridine] yielded a Ki [1, 5] of 3.89 nM, a Ki (α2A receptor; [6]) of 1450 nM and a Ki [2, 7] of 759 nM.
`COC(=O)C1=C(C)NC(C)=C(C(=O)NCCCN2CCC(c3ccccc3)(c3ccccc3)CC2)C1c1cc(OC)c(OC)c(OC)c1` (stereo not drawn) [Example 27] gave a Ki [1, 3] of 3.63 nM, a Ki (α2A receptor) of 1950 nM and a Ki [2, 4] of 324 nM.
`COC(=O)C1=C(C)NC(C)=C(C(=O)NCCCN2CCC(c3ccccc3)(c3ccccc3)CC2)C1c1ccc(Br)cc1` (stereo not drawn) [Example 15, 4-(4-Bromophenyl)-1,4-dihydro-3-methoxycarbonyl-2,6-dimethyl-5-(N-(3-(4,4-diphenylpiperidin-1-yl)propyl)carboxamido)pyridine] showed a Ki [1, 3] of 6.31 nM, a Ki (α2A receptor) of 2450 nM and a Ki [2, 4] of 166 nM.
In the case of `CCC1=C(C(=O)NCCCN2CCC(c3ccccc3)(c3ccccc3)CC2)C(c2ccc(N)cc2)C(C(=O)OC)=C(C)N1` (stereo not drawn) [Example 114, 4-(4-Aminophenyl)-2-ethyl-1,4-dihydro-5-methoxycarbonyl-6-methyl-3-(N-(3-(4,4-diphenylpiperidin-1-yl)propyl)carboxamido)-pyridine], the Ki ([1]; cloned human α1C receptor, LM(tk−) cell membranes, read-out: pKi alpha-1 1c (converted)) is reported as 10.2 nM, the Ki (α2A receptor) is reported as 2090 nM and the Ki ([2]; cloned human α1B receptor, LM(tk−) cell membranes, read-out: pKi alpha-1 1b (converted)) is reported as 204 nM.
Compound `CCC1=C(C(N)=O)C(c2ccc([N+](=O)[O-])cc2)C(C(=O)NCCCN2CCC(C#N)(c3ccccc3)CC2)=C(CC)N1` (single isomer, unassigned; (+)) [(+)-102] has a Ki [1, 5] of 2.63 nM, a Ki (α2A receptor; [6]) of 3890 nM and a Ki [2, 7] of 1230 nM.
In the case of `CCNC(=O)C1=C(COCCN=[N+]=[N-])NC(CC)=C(C(=O)NCCCN2CCC(c3ccccc3)(c3ccccc3)CC2)C1c1ccc([N+](=O)[O-])cc1` (stereo not drawn) [Example 147, 2-((2-Azidoethyl)oxy)methyl-6-ethyl-3-(N-ethyl)carboxamido-1,4-dihydro-4-(4-nitro)phenyl-5-(N-(3-(4,4-diphenylpiperidin-1-yl-)propyl))carboxamidopyridine], the Ki [1, 5] is reported as 11 nM, the Ki (α2A receptor; [6]) is reported as 871 nM and the Ki [2, 7] is reported as 257 nM.
With `CC1=C(C(=O)NCCCN2CCC(c3ccccc3)(c3ccccc3)CC2)C(c2ccc([N+](=O)[O-])cc2)c2c([nH]c(=O)[nH]c2=O)N1` (stereo not drawn) [Example 64] the Ki [1, 10] was 35.5 nM, the Ki (α2A receptor; [8]) was 692 nM and the Ki [2, 9] was 355 nM.
Work on `COC(=O)C1=C(C)NC(C)=C(C(=O)NCCCN2CCC(c3ccccc3)(c3ccccc3)CC2)C1c1ccc(C(F)(F)F)cc1` (stereo not drawn) [Example 1] yielded a Ki [1, 3] of 30.2 nM, a Ki (α2A receptor) of 2400 nM and a Ki [2, 4] of 407 nM.
In the case of `CCC1=C(C(=O)NCCCN2CCC(c3ccccc3)(c3ccccc3)CC2)C(c2ccc([N+](=O)[O-])cc2)C(C(=O)NC)=C(COCCN=[N+]=[N-])N1` (stereo not drawn) [Example 151, 2-((2-Azidoethyl)oxy)methyl-6-ethyl-1,4-dihydro-3-(N-methyl)carboxamido-4-(4-nitro)phenyl-5-(N-(3-(4,4-diphenylpiperidin-1-yl)propyl))carboxamidopyridine], the Ki [1, 5] is reported as 12.3 nM, the Ki (α2A receptor; [6]) is reported as 562 nM and the Ki [2, 7] is reported as 355 nM.

Source: patent publication US6608086B2, “Dihydropyridines and new uses thereof” (Synaptic Pharmaceutical Corporation, priority 1993, dated 2003)
